Measured values: publication PMC8358987 (Clinical cancer research : an official journal of the …, 2021)

Tests used:
[1] = molecular target: T1, OATP1B1 (Homo sapiens, UniProt Q9Y6L6); type: cell-based; details: for Reduction of OATP1B1 function: overexpressing HEK293 cells, 10 μM TKI screen; for Mechanism of OATP1B1 inhibition: kinetic analysis (Dixon plot) and pre-incubation effects
T1 sequence (Q9Y6L6 1-691): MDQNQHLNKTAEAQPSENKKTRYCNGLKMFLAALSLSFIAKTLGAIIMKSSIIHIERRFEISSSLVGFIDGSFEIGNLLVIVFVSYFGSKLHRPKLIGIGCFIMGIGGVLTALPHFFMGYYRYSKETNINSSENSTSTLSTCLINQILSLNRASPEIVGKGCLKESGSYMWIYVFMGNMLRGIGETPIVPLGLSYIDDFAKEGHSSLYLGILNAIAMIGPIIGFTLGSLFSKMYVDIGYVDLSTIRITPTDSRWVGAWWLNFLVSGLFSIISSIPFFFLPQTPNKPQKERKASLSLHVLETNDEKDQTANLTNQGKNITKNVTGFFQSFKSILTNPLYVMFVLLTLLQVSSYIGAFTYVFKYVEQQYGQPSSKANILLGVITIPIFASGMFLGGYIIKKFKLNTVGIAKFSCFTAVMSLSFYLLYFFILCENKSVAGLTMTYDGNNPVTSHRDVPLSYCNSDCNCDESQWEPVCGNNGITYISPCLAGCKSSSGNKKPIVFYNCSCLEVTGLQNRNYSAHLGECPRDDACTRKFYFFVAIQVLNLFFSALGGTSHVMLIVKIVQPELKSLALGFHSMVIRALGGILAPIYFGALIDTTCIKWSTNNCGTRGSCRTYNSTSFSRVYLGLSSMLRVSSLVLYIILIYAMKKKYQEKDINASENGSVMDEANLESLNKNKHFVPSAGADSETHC

[2] = molecular target: LYN kinase (Homo sapiens, UniProt P07948); assay: Kinase hotspot assay against LYN kinase; type: biochemical; details: for Inhibition of LYN kinase activity: 10-dose curve from 50 μM, 10 μM ATP
[3] = cited from earlier work
[4] = molecular target: T1, OATP1B1; assay: Cellular accumulation of 3H-lapatinib; type: in vitro ADME; details: 3H-lapatinib 1 μM
[5] = system: OATP1B1; details: ref prescribing information; cited from earlier work
[6] = molecular target: T1, OATP1B1; assay: OATP1B1-dependent uptake of 3H-EβG in human plateable hepatocytes; type: cell-based; details: 10 μM, 15 min pre-incubation; 3H-EβG 1 μM, 2 minutes
[7] = system: OATP1B1; assay: Mass spectrometric analysis of OATP1B1 tyrosine phosphorylation; type: cell-based, human; details: 10 μM nilotinib 15 minutes
[8] = system: OATP1B1; assay: Surface expression of OATP1B1 by biotinylation; type: cell-based, human; details: 10 μM nilotinib
[9] = system: PKC; details: concentrations of nilotinib used in the study; cited from earlier work

Chain of LYN kinase (P07948 whole entry): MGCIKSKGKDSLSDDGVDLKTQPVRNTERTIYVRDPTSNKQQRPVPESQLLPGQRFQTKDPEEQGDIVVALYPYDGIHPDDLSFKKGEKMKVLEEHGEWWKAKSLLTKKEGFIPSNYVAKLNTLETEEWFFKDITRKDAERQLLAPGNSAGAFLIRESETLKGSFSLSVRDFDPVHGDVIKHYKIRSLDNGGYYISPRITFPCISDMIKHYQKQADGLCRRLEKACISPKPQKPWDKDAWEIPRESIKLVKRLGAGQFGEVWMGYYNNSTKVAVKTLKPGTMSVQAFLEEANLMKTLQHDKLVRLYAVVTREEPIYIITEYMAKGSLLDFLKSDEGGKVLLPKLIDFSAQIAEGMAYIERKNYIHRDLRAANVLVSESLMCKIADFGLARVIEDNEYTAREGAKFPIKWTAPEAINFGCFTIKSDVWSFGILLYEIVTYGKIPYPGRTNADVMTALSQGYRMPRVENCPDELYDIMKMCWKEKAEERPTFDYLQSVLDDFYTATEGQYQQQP

## CNC(=O)c1ccccc1Sc1ccc2c(/C=C/c3ccccn3)n[nH]c2c1 [axitinib]
[1]
  Reduction of OATP1B1 function: > 75%

## COc1cc2nccc(Oc3ccc(NC(=O)C4(C(=O)Nc5ccc(F)cc5)CC4)cc3)c2cc1OC [cabozantinib]
[1]
  Reduction of OATP1B1 function: > 75%
[2]
  IC50: 15 to 685 nM

## CC(C)(C)c1nc(-c2cccc(NS(=O)(=O)c3c(F)cccc3F)c2F)c(-c2ccnc(N)n2)s1 [dabrafenib]
[1]
  Reduction of OATP1B1 function: > 75%
[3]
  Effect on systemic concentrations of the OATP1B1 substrate rosuvastatin: increase the systemic concentrations

## CS(=O)(=O)CCNCc1ccc(-c2ccc3ncnc(Nc4ccc(OCc5cccc(F)c5)c(Cl)c4)c3c2)o1 [lapatinib]
[2]
  Inhibition of LYN kinase activity: did not inhibit
[4]
  OATP1B1 substrate status: transported substrate of OATP1B1
[5]
  OATP1B1 substrate/inhibitor status per prescribing information: can reduce OATP1B1 function

## O=C(Nc1cnn2ccc(N3CCC[C@@H]3c3cc(F)ccc3F)nc12)N1CC[C@H](O)C1 [larotrectinib]
[5]
  OATP1B1 substrate/inhibitor status per prescribing information: neither a substrate nor an inhibitor of OATP1B1

## Cc1cn(-c2cc(NC(=O)c3ccc(C)c(Nc4nccc(-c5cccnc5)n4)c3)cc(C(F)(F)F)c2)cn1 [nilotinib]
[1]
  Mechanism of OATP1B1 inhibition: predominantly non-competitive
  Reduction of OATP1B1 function: > 75%
[6]
  Effect on OATP1B1-dependent transport ex vivo in human hepatocytes: reduces OATP1B1-dependent transport
[7]; overexpressing HEK293 cells
  Effect on overall tyrosine phosphorylation of OATP1B1: no significant effect
[7]; P<0.05
  Effect on OATP1B1 phosphorylation at Y645: significantly reduced
[7]; trend, P = 0.11
  Effect on OATP1B1 phosphorylation of Y640 alone: not significantly reduced
[8]
  Effect on membrane surface expression of OATP1B1: not associated with significantly reduced membrane surface expression
[9]
  Effect on PKC activity: do not affect PKC activity

## Cc1ccc(Nc2nccc(N(C)c3ccc4c(C)n(C)nc4c3)n2)cc1S(N)(=O)=O [pazopanib]
[3]
  Effect on systemic concentrations of the OATP1B1 substrate rosuvastatin: increase the systemic concentrations

## CNC(=O)c1cc(Oc2ccc(NC(=O)Nc3ccc(Cl)c(C(F)(F)F)c3)cc2)ccn1 [sorafenib]
[1]
  Reduction of OATP1B1 function: > 75%

## CC(=O)Nc1cccc(-n2c(=O)n(C3CC3)c(=O)c3c(Nc4ccc(I)cc4F)n(C)c(=O)c(C)c32)c1 [trametinib]
[1]
  Mechanism of OATP1B1 inhibition: competitive
[2]
  Inhibition of LYN kinase activity: did not inhibit
